One data set deals with O=C(O)CCc1cc(O)c(O)cc1Br. Put plainly: UV-visible steady-state assay of L-DOPA 2,3-dioxygenase (ShjDDO). It is filed as biochemical, Streptomyces hygroscopicus jingganensis. Particulars: other: S. hygroscopicus jingganensis enzyme. Here is the method:
(§1) Purified, reconstituted L-DOPA 2,3-dioxygenases were assessed for activity by monitoring the cleavage of catecholic substrates using UV–visible spectroscopy. 3,4-Dihydroxyhydrocinnamic acid (DHHCA, 3) was purchased from Sigma-Aldrich. 6-CyanoDHHCA (5) and 6-bromoDHHCA (4) were synthesized as described above.
(§2) Molecular oxygen (AirGas) was bubbled directly into the reaction buffer through a glass-bonded silica gas diffuser (Bubblemac Industries, Inc.) or as a gas mixture blended with air (AirGas). Solutions were bubbled with oxygen for several minutes prior to use and for the duration of the experiment. To determine the K M for oxygen (i.e., K MO2), L-DOPA 2,3-dioxygenases (0.25–4.0 μM) were reacted with a saturating concentration of the catecholic substrate DHHCA/6-X-DHHCA derivatives (2–10× the K M sufficient to achieve k cat) and various oxygen concentrations (21–100% or 270–1300 μM at 22 °C). The concentration of oxygen was varied by changing the percentage of oxygen in the blend using a galvanic oxygen sensor and oxygen monitor (AirGas) and then bubbling solutions, as described above. Molecular oxygen percentages were converted to molar concentrations using a reference temperature of 22 °C. The reaction of L-DOPA 2,3-dioxygenases with DHHCA/6-X-DHHCA derivatives as a function of oxygen concentration was followed by the appearance of the steady-state cleavage product by using UV–visible spectroscopy.
(§3) The extinction coefficients for steady-state cleavage products of DHHCA and synthetic 6-X-DHHCA derivatives were determined by reacting various concentrations of DHHCA/6-X-DHHCA derivatives at 22 °C with a 10-fold stoichiometric excess of enzyme (quantified by Fe^II–see Reconstitution) in 50 mM HEPES buffer with 154 mM NaCl at pH 7.5, bubbled with 100% oxygen to a final concentration of 780–910 μM, depending on the volume of oxygenated buffer that comprised the reaction (60–70%). Substrate solutions were prepared from authentic synthetic standards using an analytical balance, and reactions were run to completion as assessed by the appearance of the steady-state product. The λmax and extinction coefficients of DHHCA, 6-cyanoDHHCA, and 6-bromoDHHCA were determined herein as ε380 = 40 740 ± 820 M^–1cm^–1, ε385 = 33 256 ± 484 M^–1cm^–1, and ε380 = 35 282 ± 1190 M^–1cm^–1, respectively (Figure S52).
(§4) Steady-state kinetic data were obtained through a UV–visible spectroscopic assay. Initial rates were obtained from the slopes of the linear regions of the progress curves and plotted versus substrate concentration to yield a hyperbola, which was analyzed using the Michaelis–Menten expression and nonlinear least-squares fitting (NLSF) with Origin 6.0 (Microcal). Two possible derivations of the Michaelis–Menten expression were used: 1) the traditional expression y = k cat × x/(K M + x), where y is Rate/E 0 or the rate of product formation (μM/min) divided by the starting enzyme concentration (μM), x is substrate concentration (μM) and k SP (also known as k cat × K M ^–1)–that is, the second-order rate constant of enzyme and substrate–is extracted from the fitted constants; or 2) the alternative derivation that extracts k SP and k cat directly from the fit: y = (k SP × x)/((1 + k SP × x)/k cat), and where y is Rate/E 0 or the rate of product formation (μM/min) divided by the starting enzyme concentration (μM), x is substrate concentration (μM), k SP is equivalent to k cat×K M ^–1, and K M is extracted from k cat/k cat×K M ^–1.

The test system of a further data set is O=C(O)CCc1ccc(O)c(O)c1. The description is as above. It is filed as biochemical, Streptomyces hygroscopicus jingganensis. Particulars: other: S. hygroscopicus jingganensis enzyme. As for the experimental part:
as §1, §2, §3, §4

The test system of data set [1] is N#Cc1cc(O)c(O)cc1CCC(=O)O. Described as above. The class given is biochemical, Streptomyces hygroscopicus jingganensis. The following applies: other: S. hygroscopicus jingganensis enzyme. Here is the method: as §1, §2, §3, §4
The subject of data set [2] is S. hygroscopicus jingganensis L-DOPA 2,3-dioxygenase (ShjDDO). The data set can be described thus: Presteady state stopped-flow kinetic assay, modeled with KinTek Explorer. Particulars: ratio k6/k7; presteady state with ShjDDO. It is filed as biochemical, Streptomyces hygroscopicus jingganensis. Here is the method: Reaction temperature was controlled at 14 ± 0.5 °C by a circulating water bath. […] Stock solutions of 6-[…] prepared in DMSO. […] ShjDDO was reconstituted with iron(II) sulfate heptahydrate, gel filtered into the reaction buffer, and loaded into the drive syringe. […] Fifteen to twenty progress curves from the same experimental conditions were averaged in the KinTek Stopped Flow software and exported to KinTek Explorer for modeling. Between experiments, the instrument drive syringes were cleaned with acid, base, and water; soaked in 1% Hellmanex detergent for 30 min at ∼30-35 °C; thoroughly rinsed with water; and stored in 10% ethanol. […] state kinetic data were analyzed by fitting to simulated mechanisms using the KinTek Explorer software (KinTek Corp, Austin, TX). KinTek Explorer simulates experimental results by using direct numerical integration of rate equations for the kinetic model and yields estimates for the rate constants of microscopic steps. […] state experiments were modeled using KinTek Explorer according to a defined reaction pathway, as described in the Results and Discussion and shown in Scheme . The extinction coefficients of the DHHCA and 6-[…] semialdehyde products were independently determined as described above and fixed during fitting. Some rates were fixed as either “fast” (i.e., 1 × 10^9) or very slow (1 × 10^-12, i.e., ∼0) as described in the text. The equilibrium represented by k 1 and k -1 was fixed at the ratio of substrate charge states as predicted by the experimentally determined pK a values (Table ) and the Henderson-Hasselbach equation. Extinction coefficients were fitted and/or fixed during fitting as described in the text and interpreted using the observable expression: […], where a is the extinction coefficient applied to ESQ, b is the independently experimentally determined extinction coefficient on P, and c is a y-axis offset. […] ESO2 is the ternary complex of enzyme, substrate, and oxygen. ESQ represents the putative semiquinone intermediate, a UV-absorbing species, and ESQ_X is the species formed from the nonproductive quenching of the semiquinone. […] EP is the enzyme-product complex, and P is the free semialdehyde product. P can then degrade nonenzymatically to the spectroscopically silent P_X. Errors on each fit were calculated from 2[…] at 0.83 Chi^2. The KinTek Explorer program FitSpace explores the uniqueness of a particular fit to the data by measuring the dependence of the sum square error (SSE) on each pair of parameters, while allowing all other parameters to vary in seeking the best fit. […]

Data set [3] deals with L-DOPA 2,3-dioxygenase from S. lincolnensis (LmbB1) (Streptomyces lincolnensis, UniProt Q54354). Put plainly: UV-visible steady-state assay of L-DOPA 2,3-dioxygenase (LmbB1). The class given is biochemical. Here is the method: as §1, §2, §3, §4
Data set [4] in a line: Determination of pKa values by spectrophotometric titration.
Description: A buffer system utilizing five different buffers was prepared to cover the pH range of 3.0 to 12.50. A Thermo Scientific Orion Star A211 pH meter was used to measure and determine the pH of each buffer. The pH meter was calibrated using three- and four-point calibration with pH values of 4.00, 7.01, and 10.01 and 4.00, 7.01, 10.01, and 12.00, respectively.
The buffer systems were prepared as previously described and included: NaOAc/HOAc buffers (C = 0.1 M; I = 0.1 M) were used to cover the pH range of 3.0 to 5.50. KH2PO4/K2HPO4 buffers (C = 0.05 M; I = 0.1 M) were used to cover the pH range of 6.00 to 8.00. CHES buffers (C = 0.05 M; I = 0.1 M) were used to cover the pH range of 8.50 to 10.50. Na2HPO4/Na3PO4 buffers (C = 0.05 M; I = 0.1 M) were used to cover the pH range of 11.00 to 12.00. KCl buffers (C = 0.1 M; I = 0.1 M) were used to cover the pH range of 12.00 to 12.50.
The absorbance spectra of the compounds were determined at each pH as previously described. Briefly, a stock solution was prepared for each compound by weighing 2 mg of the compound using a high-precision analytical balance. Each compound was then dissolved in DMSO at a concentration of 10 mM. A UV-transparent 96-well microplate (Corning clear acrylic 96-well UV plate with a UV-transparent flat bottom) was loaded with 196 μL of buffer solution and 4 μL of the catechol stock in each well to get a final concentration of 200 μM. DMSO (4 μL) was added to 196 μL of the appropriate buffer to produce a blank solution for each buffer.
The 96-well plate was loaded into the microplate reader and incubated at 30 °C and shaken for 10 min before the reading. Absorbance readings were completed by using a Synergy HTX 15032517 microplate reader. Each well was read at wavelengths from 210 to 600 nm with 2-nm increments for each scan over a duration of 60 min.
The data were analyzed as previously described. Raw UV-spectra scans were exported to the Excel program. They were first processed by subtracting the reading of the blank solutions from the reading of each compound at the corresponding wavelengths. […] Finally, the spectral difference between the pH 3.0 buffer and the spectra at all other pH values was plotted. Additionally, the spectral difference between the pH 4.0 buffer and the spectra at all other higher pH values was plotted. The wavelengths for the maximum positive and negative absorbance were determined by using the graphs of the spectral difference plots, both for the pH 3.0 and pH 4.0 spectral difference plots. The absolute maximum positive and total absorbance differences at these chosen wavelengths were plotted against the pH of each buffer. The data were imported into the Origin 6.0 program, and the pK a values were determined with a nonlinear regression using eq : 1 Absorbancetotal=εHA−εA−[10^(pH−pKa)]/1+10^(pH−pKa)×[St]
εHA is the extinction coefficients of the acid form of the compound, and εA ^– is the extinction coefficient of the base form of the compound (i.e., the minima and maxima of the absorbance difference curve, respectively), and [S t] is the total compound concentration.
For data set [5], the target named is L-DOPA 2,3-dioxygenase from S. hygroscopicus jingganensis (ShjDDO) (Streptomyces hygroscopicus, UniProt H2JL11). Put plainly: UV-visible steady-state assay of L-DOPA 2,3-dioxygenase (ShjDDO). The class given is biochemical. Here is the method:
as §1, §2, §3, §4

A short description of data set [6]: Cyclic voltammetry (redox potentials on a GCE). It is filed as physicochemical. From the text:
Reduction and oxidation potentials were experimentally performed by cyclic voltammetry (CV) at biological pH 7.4, as previously described. All samples were run on a CH Instruments 600E Potentiostat in a one-compartment cell equipped with a three-electrode system arrangement. The three-electrode system included a saturated calomel electrode as the reference electrode, a platinum wire as the auxiliary electrode, and a glassy carbon electrode (GCE, d = 2 mm) as the working electrode. The GCE was polished between each sample scan with an aqueous slurry of alumina powder on a microcloth pad. The electrodes were rinsed with distilled water prior to the next scan. All scans were conducted under nitrogen for oxygen displacement and at room temperature (rt, 25 ± 1 °C). All samples were prepared as close to the scan as possible (approximately 2 min each). Each sample (5 mL) contained 0.1 mM catecholic substrate and 1 μM DMSO in 0.1 M phosphate buffer at a pH of 7.4 or 6.0. […] The cyclic voltammograms for the compounds at both pH 6.0 and 7.4 are available in Figures S40–S51.

Setting [7] is: saturating catecholic substrate, 22 °C, pH 7.5.
The mark [8] stands for this setting: percentage of the value for L-DOPA.

The values below come from publication PMC12311729, “Probing the Mechanism of L‑DOPA 2,3-Dioxygenase Using Synthetic Derivatives of 3,4-Dihydroxyhydrocinnamic Acid” (ACS Omega, 2025).

Sequence of L-DOPA 2,3-dioxygenase from S. hygroscopicus jingganensis (ShjDDO) (H2JL11 1-162): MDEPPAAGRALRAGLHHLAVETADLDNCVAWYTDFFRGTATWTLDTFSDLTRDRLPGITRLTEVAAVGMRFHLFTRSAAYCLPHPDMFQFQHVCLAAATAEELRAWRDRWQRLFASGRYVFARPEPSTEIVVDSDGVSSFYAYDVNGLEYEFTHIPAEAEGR
Sequence of L-DOPA 2,3-dioxygenase from S. lincolnensis (LmbB1) (Q54354 entry or part of it): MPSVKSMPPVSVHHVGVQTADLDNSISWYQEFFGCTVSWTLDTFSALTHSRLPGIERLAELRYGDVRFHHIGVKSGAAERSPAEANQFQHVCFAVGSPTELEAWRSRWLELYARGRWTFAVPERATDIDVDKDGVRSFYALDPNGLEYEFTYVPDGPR

In the case of “L-DOPA 2,3-dioxygenase from S. hygroscopicus jingganensis (ShjDDO) (Streptomyces hygroscopicus subsp. jinggangensis 5008)”, the Km with O=C(O)CCc1cc(O)c(O)cc1Br (pH 7.5, 22 °C) came out at 926 ± 169 µM; in the data set with O=C(O)CCc1cc(O)c(O)cc1Br (setting [7]), 759 ± 66 µM; with O=C(O)CCc1ccc(O)c(O)c1 (pH 7.5, 22 °C), 422 ± 94 µM; in the data set with O=C(O)CCc1ccc(O)c(O)c1 (setting [7]) it was 1059 ± 246 µM; in data set [1] (pH 7.5, 22 °C) it was 228 ± 53 µM; in data set [1] (setting [7]) it was 1019 ± 236 µM.

On to `O=C(O)CCc1ccc(O)c(O)c1` [DHHCA (3), 3,4-dihydroxyhydrocinnamic acid], for which, in data set [2], the “productive formation of EI (k 6) faster than the rate of inactivation (k 7)” value is on record as around 40 times. The “activity / turnover as substrate” value in data set [3] (LmbB1, aerobic reaction observed by UV–visible spectroscopy) is reported as “measurable activity”; in data set [5] (ShjDDO, aerobic reaction observed by UV–visible spectroscopy), “measurable activity”. In addition, the “kcat at 22 °C and 100% O2 saturation” value in data set [3] (S. lincolnensis enzyme, pH 7.5) is given as 2.1 ± 0.2 sec^–1; in data set [5] (S. hygroscopicus jingganensis enzyme, pH 7.5), 6.7 × 10^–1 ± 5.0 × 10 ^–2 sec^–1. Further, the “kSP,O2 × 10^2 at 22 °C” value in data set [3] (S. lincolnensis enzyme, values are kSP × 10^2) was 19.2 ± 3.2 μM^–1 min^–1; in data set [5] (S. hygroscopicus jingganensis enzyme, values are kSP × 10^2), 17.7 ± 2.6 μM^–1 min^–1. In addition, the “kSP catechol × 10^2 at 22 °C” value in data set [3] (S. lincolnensis enzyme, values are kSP × 10^2, kSP = kcat/KM) is 13.4 ± 2.5 μM^–1 min^–1; in data set [5] (S. hygroscopicus jingganensis enzyme, values are kSP × 10^2, kSP = kcat/KM) it was 9.5 ± 2.3 μM^–1 min^–1. Further, the “kSP, O2 (μM^-1 min^-1) at pH 7.5 relative to L-DOPA x 100 for LmbB1” value in data set [3] (setting [8]) is on record as 23%. The molecule also displayed a pK a value in data set [4] (first catecholic deprotonation, determined spectroscopically from pH 3 to 12.5) of 8.87 ± 0.12. Further, in data set [4] (setting [8]), the “Catecholic pKa value relative to L-DOPA x 100” value was 101%. Further, the “kSP, O2 (μM^-1 min^-1) at pH 7.5 relative to L-DOPA x 100 for ShjDDO” value in data set [5] (setting [8]) is listed as 13%. The “(E p)a Oxidation” value was 388 mV in data set [6] (pH 6.0, GCE (d = 2 mm)) and 333 mV in data set [6] (pH 7.4, GCE (d = 2 mm)). Besides, the E1/2 in data set [6] (pH 6.0, GCE (d = 2 mm)) turned out to be 198.5 mV; in data set [6] (pH 7.4, GCE (d = 2 mm)), 119 mV. The Ipa/Ipc was found to be 2.54 in data set [6] (pH 6.0, GCE (d = 2 mm)) and 1.30 in data set [6] (pH 7.4, GCE (d = 2 mm)). Besides, the ΔE p in data set [6] (pH 6.0, GCE (d = 2 mm)) is listed as 379 mV; in data set [6] (pH 7.4, GCE (d = 2 mm)), 428 mV. The “(E p)c Reduction” value in data set [6] (pH 7.4, GCE (d = 2 mm)) was “–95 mV”. Also, the “E1/2 (mV) at pH 7.4 relative to L-DOPA x 100” value in data set [6] (setting [8]) worked out at 59%.
